Measured values as given in the NIST ThermoML archive (doi:10.1021/je049712l).
Numbers after ± are expanded uncertainties.

Conditions: 101.33 kPa, Liquid, Vibrating tube method

`CO` [methanol] gave a mass density (273 K) of 800 ± 24 kg/m3, a mass density (298 K) of 787 ± 24 kg/m3 and a mass density (303 K) of 786 ± 24 kg/m3. It also gave a mass density (313 K) of 779 ± 24 kg/m3 and a mass density (323 K) of 768 ± 24 kg/m3.
